Experiment [1] has as its target T1, Lymphokine-activated killer T-cell-originated protein kinase (Homo sapiens) (UniProt Q96KB5).
T1 sequence (whole entry): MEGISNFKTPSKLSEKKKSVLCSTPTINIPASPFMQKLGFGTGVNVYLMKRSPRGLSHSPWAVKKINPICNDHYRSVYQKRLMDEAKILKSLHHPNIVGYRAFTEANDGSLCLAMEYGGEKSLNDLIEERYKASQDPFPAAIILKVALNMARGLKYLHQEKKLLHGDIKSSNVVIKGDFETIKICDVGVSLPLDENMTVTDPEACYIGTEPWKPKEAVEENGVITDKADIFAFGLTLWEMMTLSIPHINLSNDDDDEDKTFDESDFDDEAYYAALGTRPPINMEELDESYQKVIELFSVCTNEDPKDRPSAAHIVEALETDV
Nature of the experiment: Inhibition of human TOPK at 500 nM by HotSpot assay relative to control.

Experiment [2] concerns the target T2, Serine/threonine-protein kinase 4 (Homo sapiens) (UniProt Q13043).
T2 sequence (whole entry): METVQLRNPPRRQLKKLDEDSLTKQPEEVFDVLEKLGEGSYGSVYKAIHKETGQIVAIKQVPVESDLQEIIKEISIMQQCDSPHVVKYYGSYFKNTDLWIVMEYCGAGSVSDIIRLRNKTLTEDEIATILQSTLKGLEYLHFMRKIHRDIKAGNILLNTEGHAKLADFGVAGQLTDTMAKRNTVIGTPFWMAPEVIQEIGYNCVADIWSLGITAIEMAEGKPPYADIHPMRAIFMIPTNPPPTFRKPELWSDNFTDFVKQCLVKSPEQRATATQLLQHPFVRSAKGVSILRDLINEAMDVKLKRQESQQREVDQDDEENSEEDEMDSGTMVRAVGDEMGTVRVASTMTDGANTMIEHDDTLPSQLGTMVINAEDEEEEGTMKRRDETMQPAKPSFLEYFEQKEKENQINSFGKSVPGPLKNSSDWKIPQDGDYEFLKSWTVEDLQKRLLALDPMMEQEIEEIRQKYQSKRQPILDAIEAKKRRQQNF
Nature of the experiment: Inhibition of human STK4 at 500 nM by HotSpot assay relative to control.

Experiment [3] concerns the target G protein-coupled receptor kinase 4 (Homo sapiens) (UniProt P32298). The experiment is described as follows: Inhibition of human GRK4 at 500 nM by HotSpot assay relative to control.
In experiment [4] the target is Fibroblast growth factor receptor 1 (Homo sapiens) (UniProt P11362). Nature of the experiment: Inhibition of human FGFR1 at 500 nM by HotSpot assay relative to control.
Fibroblast growth factor receptor 1 (Homo sapiens), sequence (P11362 22-822 limits assumed): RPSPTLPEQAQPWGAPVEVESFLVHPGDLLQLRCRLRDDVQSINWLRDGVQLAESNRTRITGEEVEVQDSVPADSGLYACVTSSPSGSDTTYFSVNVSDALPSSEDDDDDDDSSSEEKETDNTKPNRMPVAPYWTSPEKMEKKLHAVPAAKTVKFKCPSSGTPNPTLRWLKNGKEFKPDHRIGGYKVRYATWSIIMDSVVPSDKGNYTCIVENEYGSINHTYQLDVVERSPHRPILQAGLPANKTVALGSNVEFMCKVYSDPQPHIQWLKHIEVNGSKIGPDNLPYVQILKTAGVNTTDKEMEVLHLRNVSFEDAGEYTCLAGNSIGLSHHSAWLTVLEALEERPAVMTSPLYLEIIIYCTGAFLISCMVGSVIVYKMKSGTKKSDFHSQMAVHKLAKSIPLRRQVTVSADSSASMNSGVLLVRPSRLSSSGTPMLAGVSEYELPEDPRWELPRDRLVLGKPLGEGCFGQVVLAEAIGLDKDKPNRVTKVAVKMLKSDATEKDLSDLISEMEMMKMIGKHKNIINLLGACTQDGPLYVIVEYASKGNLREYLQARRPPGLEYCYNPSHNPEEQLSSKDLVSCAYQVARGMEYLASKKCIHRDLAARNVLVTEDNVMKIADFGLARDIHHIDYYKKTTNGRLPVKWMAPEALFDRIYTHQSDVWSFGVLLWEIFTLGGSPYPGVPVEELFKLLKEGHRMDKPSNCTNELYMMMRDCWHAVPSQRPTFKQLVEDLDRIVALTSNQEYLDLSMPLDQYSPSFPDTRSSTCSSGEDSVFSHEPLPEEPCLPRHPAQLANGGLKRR
Experiment [5] deals with Tyrosine-protein kinase Fes/Fps (Homo sapiens) (UniProt P07332). The experiment is described as follows: Inhibition of human FES at 500 nM by HotSpot assay relative to control.
Experiment [6] addresses Angiopoietin-1 receptor (Homo sapiens) (UniProt Q02763). Nature of the experiment: Inhibition of human TEK at 500 nM by HotSpot assay relative to control.
Experiment [7] has as its target Serine/threonine-protein kinase 10 (Homo sapiens) (UniProt O94804). The experiment is described as follows: Inhibition of human LOK at 500 nM by HotSpot assay relative to control.
Experiment [8] addresses T3, Serine/threonine-protein kinase VRK1 (Homo sapiens) (UniProt Q99986).
T3 sequence (whole entry): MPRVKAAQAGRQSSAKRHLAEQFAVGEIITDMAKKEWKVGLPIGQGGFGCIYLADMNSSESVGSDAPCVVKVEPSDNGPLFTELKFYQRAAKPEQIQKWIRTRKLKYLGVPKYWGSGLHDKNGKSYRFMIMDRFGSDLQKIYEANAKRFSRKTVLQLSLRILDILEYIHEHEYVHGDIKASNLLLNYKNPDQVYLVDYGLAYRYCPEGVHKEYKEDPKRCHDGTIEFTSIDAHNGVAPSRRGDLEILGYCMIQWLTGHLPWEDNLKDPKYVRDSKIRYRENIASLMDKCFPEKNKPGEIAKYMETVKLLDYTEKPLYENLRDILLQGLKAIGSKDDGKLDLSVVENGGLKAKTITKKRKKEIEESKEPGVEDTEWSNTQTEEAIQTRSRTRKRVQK
Nature of the experiment: Inhibition of human VRK1 at 500 nM by HotSpot assay relative to control.

Experiment [9] deals with T4, Megakaryocyte-associated tyrosine-protein kinase (Homo sapiens) (UniProt P42679).
T4 sequence (whole entry): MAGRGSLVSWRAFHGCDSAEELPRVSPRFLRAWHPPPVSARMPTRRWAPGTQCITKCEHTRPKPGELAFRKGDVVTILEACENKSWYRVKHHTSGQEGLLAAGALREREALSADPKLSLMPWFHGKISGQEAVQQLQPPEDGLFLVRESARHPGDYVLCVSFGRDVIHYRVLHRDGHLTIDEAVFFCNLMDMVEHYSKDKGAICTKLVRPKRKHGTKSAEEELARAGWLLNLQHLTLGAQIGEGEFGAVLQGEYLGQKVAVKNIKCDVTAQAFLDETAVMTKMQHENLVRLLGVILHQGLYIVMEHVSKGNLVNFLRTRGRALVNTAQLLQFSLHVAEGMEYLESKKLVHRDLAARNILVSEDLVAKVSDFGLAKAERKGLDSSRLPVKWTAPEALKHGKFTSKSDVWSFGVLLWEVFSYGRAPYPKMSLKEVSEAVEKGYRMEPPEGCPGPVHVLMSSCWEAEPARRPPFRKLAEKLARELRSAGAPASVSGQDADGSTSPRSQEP
Nature of the experiment: Inhibition of human CTK at 500 nM by HotSpot assay relative to control.

Experiment [10] deals with Serine/threonine-protein kinase PAK 4 (Homo sapiens) (UniProt O96013). Nature of the experiment: Inhibition of human PAK4 at 500 nM by HotSpot assay relative to control.
Serine/threonine-protein kinase PAK 4 (Homo sapiens), sequence (O96013 whole entry, looked up): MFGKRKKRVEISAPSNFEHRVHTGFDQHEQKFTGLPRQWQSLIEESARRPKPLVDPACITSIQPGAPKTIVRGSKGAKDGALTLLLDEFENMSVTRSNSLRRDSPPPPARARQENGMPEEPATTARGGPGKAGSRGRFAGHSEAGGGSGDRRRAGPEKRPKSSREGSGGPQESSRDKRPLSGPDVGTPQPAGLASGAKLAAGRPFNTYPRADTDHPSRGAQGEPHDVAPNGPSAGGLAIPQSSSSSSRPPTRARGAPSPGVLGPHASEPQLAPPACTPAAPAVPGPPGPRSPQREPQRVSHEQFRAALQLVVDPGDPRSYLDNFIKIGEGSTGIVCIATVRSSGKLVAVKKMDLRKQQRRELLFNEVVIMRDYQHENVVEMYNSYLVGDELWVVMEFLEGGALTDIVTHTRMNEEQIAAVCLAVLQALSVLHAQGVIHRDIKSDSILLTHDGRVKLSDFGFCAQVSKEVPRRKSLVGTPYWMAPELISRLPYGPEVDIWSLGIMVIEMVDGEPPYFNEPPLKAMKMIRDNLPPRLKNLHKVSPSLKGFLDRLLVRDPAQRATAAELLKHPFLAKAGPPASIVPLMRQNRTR
Experiment [11] concerns the target T5, Dual specificity tyrosine-phosphorylation-regulated kinase 3 (Homo sapiens) (UniProt O43781).
T5 sequence (whole entry): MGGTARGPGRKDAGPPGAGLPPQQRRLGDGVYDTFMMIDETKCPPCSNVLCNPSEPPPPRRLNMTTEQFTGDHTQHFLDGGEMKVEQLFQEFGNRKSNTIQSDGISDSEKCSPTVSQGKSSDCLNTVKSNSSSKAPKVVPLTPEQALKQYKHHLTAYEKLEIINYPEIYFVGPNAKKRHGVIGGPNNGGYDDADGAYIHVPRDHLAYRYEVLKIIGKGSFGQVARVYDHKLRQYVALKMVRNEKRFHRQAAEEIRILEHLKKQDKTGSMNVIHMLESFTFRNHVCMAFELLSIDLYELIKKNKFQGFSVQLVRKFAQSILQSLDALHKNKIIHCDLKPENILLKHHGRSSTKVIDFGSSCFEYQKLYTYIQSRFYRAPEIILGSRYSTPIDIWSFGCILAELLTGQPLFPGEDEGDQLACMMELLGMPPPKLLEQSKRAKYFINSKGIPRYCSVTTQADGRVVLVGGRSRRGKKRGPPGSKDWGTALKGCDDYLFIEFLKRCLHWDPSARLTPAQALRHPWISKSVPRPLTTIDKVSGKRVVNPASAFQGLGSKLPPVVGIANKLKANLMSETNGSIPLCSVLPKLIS
The experiment is described as follows: Inhibition of human DYRK3 at 500 nM by HotSpot assay relative to control.

Experiment [12] has as its target Tyrosine-protein kinase ABL1 (Homo sapiens) (UniProt P00519). The experiment is described as follows: Inhibition of human ABL1 at 500 nM by HotSpot assay relative to control.

From ChEMBL document CHEMBL5653615 (J Biol Chem, 2013) come the findings set out here.

The structures appear in SMILES notation.

Angiopoietin-1 receptor (Homo sapiens), sequence (Q02763 whole entry): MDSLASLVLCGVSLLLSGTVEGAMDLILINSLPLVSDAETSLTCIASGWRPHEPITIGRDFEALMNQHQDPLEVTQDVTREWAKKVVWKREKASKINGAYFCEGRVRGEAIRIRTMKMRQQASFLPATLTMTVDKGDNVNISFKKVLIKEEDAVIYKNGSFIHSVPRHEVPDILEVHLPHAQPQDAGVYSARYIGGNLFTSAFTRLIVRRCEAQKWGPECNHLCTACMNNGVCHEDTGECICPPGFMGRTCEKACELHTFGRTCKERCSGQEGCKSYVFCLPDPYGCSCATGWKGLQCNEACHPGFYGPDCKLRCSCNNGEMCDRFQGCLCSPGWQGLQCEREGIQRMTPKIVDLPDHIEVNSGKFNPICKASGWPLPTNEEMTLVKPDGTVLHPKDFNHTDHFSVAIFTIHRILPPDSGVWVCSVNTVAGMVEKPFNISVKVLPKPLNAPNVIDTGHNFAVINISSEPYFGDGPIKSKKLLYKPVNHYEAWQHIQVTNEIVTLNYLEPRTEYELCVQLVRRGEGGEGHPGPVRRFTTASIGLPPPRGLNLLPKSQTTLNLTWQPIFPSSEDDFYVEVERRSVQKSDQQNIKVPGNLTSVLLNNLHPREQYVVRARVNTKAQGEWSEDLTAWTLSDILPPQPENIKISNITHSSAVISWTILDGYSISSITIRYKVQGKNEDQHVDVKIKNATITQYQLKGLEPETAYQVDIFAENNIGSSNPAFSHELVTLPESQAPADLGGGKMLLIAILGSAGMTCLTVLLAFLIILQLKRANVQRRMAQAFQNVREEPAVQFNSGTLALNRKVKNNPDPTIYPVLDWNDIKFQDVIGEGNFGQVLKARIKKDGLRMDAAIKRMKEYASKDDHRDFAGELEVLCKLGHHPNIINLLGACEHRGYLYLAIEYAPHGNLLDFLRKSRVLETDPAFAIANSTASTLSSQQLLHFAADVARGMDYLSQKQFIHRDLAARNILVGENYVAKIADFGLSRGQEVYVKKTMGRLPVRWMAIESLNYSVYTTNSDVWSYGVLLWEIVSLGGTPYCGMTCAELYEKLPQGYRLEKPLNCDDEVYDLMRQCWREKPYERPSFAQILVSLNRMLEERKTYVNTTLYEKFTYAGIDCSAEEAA
Serine/threonine-protein kinase 10 (Homo sapiens), sequence (O94804 whole entry, looked up): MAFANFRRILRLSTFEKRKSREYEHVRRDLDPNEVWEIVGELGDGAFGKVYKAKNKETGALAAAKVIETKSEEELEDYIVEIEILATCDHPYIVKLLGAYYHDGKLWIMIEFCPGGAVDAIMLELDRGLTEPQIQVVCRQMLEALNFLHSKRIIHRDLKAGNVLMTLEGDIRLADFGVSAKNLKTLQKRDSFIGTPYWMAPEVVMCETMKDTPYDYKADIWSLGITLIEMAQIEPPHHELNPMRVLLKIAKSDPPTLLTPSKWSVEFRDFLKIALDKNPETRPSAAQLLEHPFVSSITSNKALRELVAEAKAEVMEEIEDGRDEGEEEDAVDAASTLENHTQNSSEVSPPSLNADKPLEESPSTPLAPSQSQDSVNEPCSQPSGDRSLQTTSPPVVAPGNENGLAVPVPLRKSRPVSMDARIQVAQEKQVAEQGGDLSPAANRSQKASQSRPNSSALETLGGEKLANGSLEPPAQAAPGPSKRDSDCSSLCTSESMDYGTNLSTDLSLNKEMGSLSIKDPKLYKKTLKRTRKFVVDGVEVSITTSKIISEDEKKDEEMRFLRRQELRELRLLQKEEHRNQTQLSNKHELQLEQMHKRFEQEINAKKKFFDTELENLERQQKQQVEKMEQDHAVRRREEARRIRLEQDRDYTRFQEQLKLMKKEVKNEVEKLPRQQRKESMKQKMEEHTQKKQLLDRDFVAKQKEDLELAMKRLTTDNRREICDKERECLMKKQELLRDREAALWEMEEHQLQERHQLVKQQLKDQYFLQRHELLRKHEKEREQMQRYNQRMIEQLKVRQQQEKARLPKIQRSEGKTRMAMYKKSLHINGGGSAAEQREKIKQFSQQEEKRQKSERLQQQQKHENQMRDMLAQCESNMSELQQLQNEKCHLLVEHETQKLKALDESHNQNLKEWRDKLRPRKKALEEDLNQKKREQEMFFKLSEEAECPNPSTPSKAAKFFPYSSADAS
Tyrosine-protein kinase ABL1 (Homo sapiens), sequence (P00519 whole entry): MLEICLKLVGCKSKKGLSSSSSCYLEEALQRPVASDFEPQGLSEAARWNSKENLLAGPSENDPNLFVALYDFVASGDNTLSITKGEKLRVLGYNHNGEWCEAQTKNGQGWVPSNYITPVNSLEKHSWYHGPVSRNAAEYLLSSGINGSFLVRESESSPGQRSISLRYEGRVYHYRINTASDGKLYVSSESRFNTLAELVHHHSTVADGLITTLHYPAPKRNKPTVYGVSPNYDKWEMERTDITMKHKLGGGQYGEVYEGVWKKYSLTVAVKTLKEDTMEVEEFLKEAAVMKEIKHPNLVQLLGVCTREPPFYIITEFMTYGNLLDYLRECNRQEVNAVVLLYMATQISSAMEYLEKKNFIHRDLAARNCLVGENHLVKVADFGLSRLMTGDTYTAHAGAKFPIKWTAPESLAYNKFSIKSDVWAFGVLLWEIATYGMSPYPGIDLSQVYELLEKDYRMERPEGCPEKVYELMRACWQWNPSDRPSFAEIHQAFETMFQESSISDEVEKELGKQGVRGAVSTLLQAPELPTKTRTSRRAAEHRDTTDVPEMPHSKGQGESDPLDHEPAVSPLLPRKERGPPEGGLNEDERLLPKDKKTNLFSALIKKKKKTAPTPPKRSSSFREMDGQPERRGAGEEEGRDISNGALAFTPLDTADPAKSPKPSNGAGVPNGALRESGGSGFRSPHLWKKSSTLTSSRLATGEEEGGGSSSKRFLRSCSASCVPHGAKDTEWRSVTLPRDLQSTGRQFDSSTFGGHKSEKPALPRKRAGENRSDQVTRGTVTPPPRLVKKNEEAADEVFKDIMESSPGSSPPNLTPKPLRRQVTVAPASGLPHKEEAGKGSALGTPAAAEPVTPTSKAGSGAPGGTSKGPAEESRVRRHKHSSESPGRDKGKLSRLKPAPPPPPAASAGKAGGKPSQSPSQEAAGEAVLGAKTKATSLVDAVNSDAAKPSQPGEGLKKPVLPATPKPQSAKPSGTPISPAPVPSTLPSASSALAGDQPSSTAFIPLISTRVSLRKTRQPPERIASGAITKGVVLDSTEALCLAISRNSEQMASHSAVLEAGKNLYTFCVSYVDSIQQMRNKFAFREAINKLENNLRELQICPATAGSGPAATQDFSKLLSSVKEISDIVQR

For orientation: inhibition means the relative decrease from the control value, in per cent. Turning to `Oc1n[nH]c2nnc(-c3c(-c4ccccc4)nn4ccccc34)cc12`, the inhibition in experiment [1] is -8.9%; in experiment [2] it was -0.48%; in experiment [3], -1.17%; in [4], -1.96%; in [5], 0.31%; in experiment [6], 4.05%. For the same compound, the inhibition in experiment [7] is 5.81%; in experiment [8], 0.57%; in experiment [9], 1.78%; in experiment [10], -0.93%; in [11] it was 1.62%; in experiment [12] it was 0.36%.
Turning to `Nc1n[nH]c2nnc(-c3c(-c4ccccc4)nn4ccccc34)cc12`, the inhibition was 4.99% in experiment [1]; 0.86% in [2]; -2.71% in experiment [3]; 5.28% in experiment [4]; 2.16% in experiment [5]; 3.45% in [6]. Besides, the inhibition in experiment [7] is 29.1%; in experiment [8], 7.83%; in experiment [9], 4.4%; in experiment [10], -1.44%; in [11] it was 0.17%; in [12], 16.7%.
